Laboratory results reported in PubChem BioAssay (NCI).
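Abbreviation: GI50, concentration required for 50% inhibition of growth. TGI: concentration producing complete growth inhibition.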

How the values were obtained:
Assay in all cases: NCI tumour cell line growth inhibition, 384-well format
786-0 renal = test system: 786-0 renal
A498 renal = test system: A498 renal
A549 NSCLC = test system: A549 NSCLC
ACHN renal = test system: ACHN renal
BT-549 breast = test system: BT-549 breast
CAKI-1 renal = test system: CAKI-1 renal
CCRF-CEM leukemia = test system: CCRF-CEM leukemia
DU-145 prostate = test system: DU-145 prostate
EKVX NSCLC = test system: EKVX NSCLC
HCT-116 colon = test system: HCT-116 colon
HCT-15 colon = test system: HCT-15 colon
HL-60(TB) leukemia = test system: HL-60(TB) leukemia
HOP-62 NSCLC = test system: HOP-62 NSCLC
HOP-92 NSCLC = test system: HOP-92 NSCLC
HS 578T breast = test system: HS 578T breast
HT29 colon = test system: HT29 colon
IGROV1 ovarian = test system: IGROV1 ovarian
K-562 leukemia = test system: K-562 leukemia
KM12 colon = test system: KM12 colon
M14 melanoma = test system: M14 melanoma
MALME-3M melanoma = test system: MALME-3M melanoma
MCF7 breast = test system: MCF7 breast
MDA-MB-231 breast = test system: MDA-MB-231 breast
MDA-MB-435 melanoma = test system: MDA-MB-435 melanoma
MDA-MB-468 breast = test system: MDA-MB-468 breast
NCI-H226 lung = test system: NCI-H226 lung
NCI-H23 lung = test system: NCI-H23 lung
NCI-H322M lung = test system: NCI-H322M lung
NCI-H522 lung = test system: NCI-H522 lung
NCI/ADR-RES ovarian = test system: NCI/ADR-RES ovarian
OVCAR-3 ovarian = test system: OVCAR-3 ovarian
OVCAR-4 ovarian = test system: OVCAR-4 ovarian
OVCAR-5 ovarian = test system: OVCAR-5 ovarian
OVCAR-8 ovarian = test system: OVCAR-8 ovarian
PC-3 prostate = test system: PC-3 prostate
RPMI-8226 leukemia = test system: RPMI-8226 leukemia
SF-268 CNS = test system: SF-268 CNS
SF-295 CNS = test system: SF-295 CNS
SF-539 CNS = test system: SF-539 CNS
SK-MEL-2 melanoma = test system: SK-MEL-2 melanoma
SK-MEL-28 melanoma = test system: SK-MEL-28 melanoma
SK-OV-3 ovarian = test system: SK-OV-3 ovarian
SN12C renal = test system: SN12C renal
SNB-19 CNS = test system: SNB-19 CNS
SNB-75 CNS = test system: SNB-75 CNS
SW-620 colon = test system: SW-620 colon
T-47D breast = test system: T-47D breast
TK-10 renal = test system: TK-10 renal
U251 glioblastoma = test system: U251 glioblastoma
UACC-257 melanoma = test system: UACC-257 melanoma
UACC-62 melanoma = test system: UACC-62 melanoma
UO-31 renal = test system: UO-31 renal

## CC[C@]1(O)C[C@H]2CN(CCc3c([nH]c4ccccc34)[C@@](C(=O)OC)(c3cc4c(cc3OC)N(C)[C@H]3[C@@](O)(C(=O)OC)[C@H](OC(C)=O)[C@]5(CC)C=CCN6CC[C@]43[C@@H]65)C2)C1
786-0 renal
  GI50: < 19.1 nM
  TGI: 4130 nM
A498 renal
  GI50: < 19.9 nM
A549 NSCLC
  GI50: < 21.2 nM
  TGI: 14100 nM
ACHN renal
  TGI: 6080 nM
BT-549 breast
  GI50: < 16.2 nM
  TGI: 42.6 nM
CAKI-1 renal
  GI50: < 22.6 nM
  TGI: 3880 nM
CCRF-CEM leukemia
  GI50: < 13.6 nM
  TGI: < 18.2 nM
DU-145 prostate
  GI50: < 18.7 nM
EKVX NSCLC
  GI50: 30.4 nM
  TGI: 11900 nM
HCT-116 colon
  GI50: < 17.8 nM
  TGI: 595 nM
HCT-15 colon
  GI50: 52 nM
  TGI: 10400 nM
HL-60(TB) leukemia
  TGI: < 11.1 nM
HOP-62 NSCLC
  GI50: < 17.5 nM
  TGI: 1250 nM
HOP-92 NSCLC
  GI50: 66.4 nM
  TGI: 8390 nM
HS 578T breast
  GI50: < 13.6 nM
  TGI: < 20.8 nM
HT29 colon
  GI50: 31.5 nM
  TGI: 10700 nM
IGROV1 ovarian
  GI50: < 39 nM
  TGI: 4400 nM
K-562 leukemia
  TGI: < 18.8 nM
KM12 colon
  GI50: 33.1 nM
  TGI: 13800 nM
M14 melanoma
  GI50: 22.7 nM
  TGI: 13200 nM
MALME-3M melanoma
  GI50: < 23.8 nM
  TGI: 16400 nM
MCF7 breast
  GI50: < 19.1 nM
  TGI: 3170 nM
MDA-MB-231 breast
  GI50: < 20.5 nM
  TGI: 8400 nM
MDA-MB-435 melanoma
  GI50: < 13.7 nM
  TGI: < 21.1 nM
MDA-MB-468 breast
  GI50: < 14.9 nM
  TGI: < 20.7 nM
NCI-H226 lung
  GI50: < 26.3 nM
  TGI: 13000 nM
NCI-H23 lung
  GI50: 25.8 nM
  TGI: 79.6 nM
NCI-H322M lung
  GI50: < 24.5 nM
  TGI: 20300 nM
NCI-H522 lung
  GI50: < 14.1 nM
  TGI: < 19.6 nM
NCI/ADR-RES ovarian
  GI50: 454 nM
  TGI: 1020 nM
OVCAR-3 ovarian
  GI50: < 15.1 nM
  TGI: < 26.5 nM
OVCAR-4 ovarian
  GI50: 357 nM
  TGI: 14700 nM
OVCAR-5 ovarian
  GI50: < 21.1 nM
  TGI: 16800 nM
OVCAR-8 ovarian
  GI50: < 16.4 nM
  TGI: < 28.4 nM
PC-3 prostate
  GI50: < 19.5 nM
  TGI: 11800 nM
RPMI-8226 leukemia
  GI50: < 11.6 nM
  TGI: < 16.8 nM
SF-268 CNS
  GI50: < 20.3 nM
  TGI: 4860 nM
SF-295 CNS
  GI50: < 14.8 nM
  TGI: < 22.6 nM
SF-539 CNS
  GI50: < 14.3 nM
  TGI: < 21.5 nM
SK-MEL-2 melanoma
  GI50: < 16.2 nM
  TGI: < 25.4 nM
SK-MEL-28 melanoma
  GI50: < 39 nM
  TGI: 14600 nM
SK-OV-3 ovarian
  GI50: < 20.6 nM
  TGI: 904 nM
SN12C renal
  GI50: < 25 nM
  TGI: 14700 nM
SNB-19 CNS
  GI50: < 21.6 nM
  TGI: 2300 nM
SNB-75 CNS
  GI50: < 20.6 nM
SW-620 colon
  GI50: < 20.2 nM
  TGI: 16300 nM
T-47D breast
  GI50: 544 nM
  TGI: 19900 nM
TK-10 renal
  GI50: < 26.9 nM
  TGI: 14600 nM
U251 glioblastoma
  GI50: < 17.7 nM
UACC-257 melanoma
  GI50: 412 nM
  TGI: 10600 nM
UACC-62 melanoma
  GI50: < 17.1 nM
UO-31 renal
  GI50: 157 nM
  TGI: 7780 nM
